Data: patent publication USRE37770E1, “Treatment of skin conditions by use of PPARα activators” (The Regents of the University of California, priority 1997, dated 2002)

Key:
[1] = test system: Steroid Sulfatase; assay: Steroid sulfatase activity in epidermis of treated fetal rat skin explants; assay type: cell-based, rats; conditions: clofibrate (300 μM), juvenile hormone III (100 μ), mean of five ± SEM
Protocol: (§1) Epidermis was separated from dermis after incubation in 10 mM ethylenediamine tetraacetic acid (EDTA) in Ca^++- and Mg^++-free phosphate-buffered saline (PBS), pH 7.4, at 37° C. for 30-40 minutes. The tissues were then minced, and homogenized on ice (three times at 15 seconds each with a Polytron homogenizer, followed by sonication twice at ten seconds each at 35% power) in either PBS containing 0.1 mM phenylmethylsulfonyl fluoride (PMSF) and 0.1% Triton X-100 (for β-glucocerebrosidase) or in 10 mM Tris (PH 7.5) containing 0.15 M sucrose and 2 mM EDTA (for steroid sulfatase). β-Glucocerebrosidase activity was measured in the supernatant following centrifugation at 10,000×g for fifteen minutes at 4° C. Steroid sulfatase activity was measured in the microsomal fraction resulting from a […] centrifugation (10 minutes, 4° C.) followed by 60 minutes of 100,000×g ultracentrifugation at 4° C. Protein content was measured by conventional techniques.
Steroid sulfatase activity was measured by incubating 100 μg of microsomal protein in 0.1 M Tris containing 5.6 mM glucose (pH 7.4) with 15 μM, (^3H) dihydroepiandrosterone sulfate (DHEAS) (15 μCi) in a final volume of 1.1 mL The product, (^3H) DHEA, was extracted with benzene and an aliquot counted by scintillation spectrophotometry.
(§2) Skin explants from 17-day fetal rats were incubated for 24 or 48 hours in media individually containing clofibrate (300 μM) and juvenile hormone III […], and control media. Enzyme activity was measured and the results are presented in Table I as the mean values of five determinations±SEM (standard error of the mean). All p values are ≦0.005 compared with controls of the same time period.

[2] = test system: Preconfluent keratinocytes; assay: Keratinocyte growth: DNA content (bis-benzimidazole fluorimetry); assay type: cell-based, human; conditions: mean of three samples
Protocol: Preconfluent keratinocytes were treated for 48 hours with varying concentrations of clofibrate ranging from 0 (vehicle only) to 400 μM, in both low (0.03 mM) calcium and high (1.2 mM) calcium. The treated keratinocytes were harvested and sonicated, and the resulting homogenates were incubated with 1 μL/mL bis-benzimidazole for two hours in the dark. DNA content was quantified by reading the samples on a spectrofluorimeter. Each value in the table is a mean of three samples.

[3] = test system: β-Glucocerebrosidase; assay: β-Glucocerebrosidase activity in epidermis of treated fetal rat skin explants; assay type: cell-based, rats; conditions: clofibrate (300 μM), juvenile hormone III (100 μ), mean of five ± SEM
Protocol: as §1
β-Glucocerebrosidase) activity was assayed using the synthetic substrate 4-methylumbelliferyl β-D-glucoside (4-MUG). The assays were performed in 5 mM sodium taurocholate in citrate-phosphate buffer (pH 5.6) with 0.5 mM 4-MUG for sixty minutes at 37° C., with a final assay volume of 100 μL, and protein concentration of 1-2 mg/mL. The reaction was terminated with 2 mL of carbonate-bicarbonate buffer (pH 10.5). The fluorescence was then measured at […] (excitation) and 450 λ (emission) and compared with a standard 4-methylumbelliferone (4-MU) curve.
as §2

[4] = test system: Skin explants from gestational day 17 rats; assay: Light and electron microscopy of fetal rat skin explants (epidermal maturation); assay type: cell-based; conditions: 300 μM, 48 hours
Protocol: Samples for light microscopy were fixed in modified Karnovsky's solution, plastic-embedded, and 0.5 μm sections were stained with toluidine. Samples for electron microscopy were minced into 1 mm^3 pieces, fixed in modified Karnovsky's fixative, and processed. Sections were stained with uranyl acetate and lead citrate, post-fixed in ruthenium tetroxide, and examined using a Zeiss 10A electron microscope.
Explants incubated in various media woe examined by light microscopy. The incubation di included control medium (containing no activators) and various media individually containing 300 μM clofibrate, 100 μM juvenile hormone III, 300 μM oleic acid, 30 μM linoleic acid, 50 μM farnesol, and various concentrations of 9-cis-retinoic acid, all-trans-retinoic acid, and 1,25-dihydroxy vitamin D3.
Observations were then made of the ultrastructural maturation of the outer epidermis in explants that had been incubated in the various media and then post-fixed in ruthenium tetroxide. Media identical to those of the preceding paragraph were used, excluding the retinoic acid-containing and 1,25-dihydroxy vitamin D3-containing media.

[5] = test system: keratinocytes; assay: Rate of DNA synthesis (3H-thymidine incorporation) in keratinocytes; assay type: cell-based, Human; conditions: 10 μM, 24 hours, low calcium (0.03 mM); 16-hour 3H-thymidine period
Protocol: The rate of DNA synthesis was determined by measuring the incorporation of ^3H-thymidine into cellular DNA after 16 hours of incubation with 2 μCi^3H-thymidine per mL of media (110 Ci/mmol methyl-1′,2′-^3H-thymidine (Amersham Laboratories, Arlington Heights, Ill. USA). The cells were then solubilized in 1N NaOH, and the radioactivity in the washed TCA precipitate was quantitated by scintillation spectroscopy.
Using the procedures set forth in the Materials and Methods section above, 25-hydroxycholesterol (10 μM) and 22(R)-hydroxycholesterol (10 μM, were compared with cholesterol (10 μM) and the vehicle alone control), with treatment for 24 hours under low calcium (0.03 mM) condition. The results are shown in the bar graph of FIG. 19.

[6] = test system: transglutaminase protein; assay: Transglutaminase protein level in keratinocytes by Western blotting; assay type: cell-based, Human; conditions: low calcium (0.03 mM), 24 hours
Protocol: Protein concentration was assessed by protein electrophoresis and Western blotting. Cells were lysed is 2% SDS and the lysate sonicated. Protein determinations were made by use of a Bicinchoninic add protein assay (Pierce Chemical Company, Rockford, Ill. USA). Following protein determination, equal amounts at protein (50 μg) were separated by electrophoresis an 7.5% polyacrylamide gels and electroblotted onto polyvinylidene […] membranes (0.2-μ, obtained from Bio-Rad Laboratories Hercules, Calif., USA). Involucrin protein was detected by incubation over-night at 4° C. C. with a polyclonal rabbit anti-human involucrin antibody (1:1000 dilution). The involucrin-specific bands on the autoradiograms were quantitated by densitometry by densitometry. Transglutaminase protein expression was measured in a similar […], using stacking, sample and running buffers containing 4 M urea, and the gels following electrophoresis were washed in 4 M urea, 25 mM TRIS-HCl, pH 7.4, 7.5 mM NaCl, 0.1 mM dithiothreitol (DTT), and 2 mM ethylenediamine tetraacetic acid for 90 minutes prior to electoblotting, allowing the transglutaminase to be detected by antibody. Specific bands on the autoradiograms were quantified by densitometry. Levels of involucrin and transglutaminase protein were measured in keratinocytes incubated in low calcium (0.03 mM) and treated with the test compounds for 24 hours. The are shown in the bar graph of FIG. 17a, where the test compounds are compared with the vehicle alone (control) and cholesterol, using the same bar indications as in FIGS 14 through 16. […] Cholesterol had no effect.

Row | SMILES | Steroid Sulfatase Activity ([1]; 24-Hour Incubation) | Steroid Sulfatase Activity ([1]; 48-Hour Incubation) | DNA Content After 48 Hours ([2]; Clofibrate 50 μM) | DNA Content After 48 Hours ([2]; Clofibrate 200 μM) | DNA Content After 48 Hours ([2]; Clofibrate 400 μM) | β-Glucocerebrosidase Activity ([3]; 24-Hour Incubation) | β-Glucocerebrosidase Activity ([3]; 48-Hour Incubation) | light microscopy of the epidermis [4] | rate of DNA synthesis [5] | TG'ase protein level relative to the control [6]
1 | CCOC(=O)C(C)(C)Oc1ccc(Cl)cc1 [clofibrate, 2-(4-chlorophenoxy)-2-methylpropanoic acid ethyl ester] | 13.90 ± 1.10 pmol/h/mg | 22.51 ± 2.60 pmol/h/mg | 14.9 ± 1.5 μg/dish | 12.9 ± 1.1 μg/dish | 11.0 ± 1.3 μg/dish | 2.97 ± 0.30 nmol/min/mg | 5.35 ± 0.89 nmol/min/mg | had both a multi-layered stratum granulosum and a stratum corneum |  | 
2 | C[C@H](CCCC(C)(C)O)[C@H]1CC[C@H]2[C@@H]3CC=C4C[C@@H](O)CC[C@]4(C)[C@H]3CC[C@]12C [25-hydroxycholesterol] |  |  |  |  |  |  |  |  | 50 % of control | approximately 1.6 fold
